Assay [1] has as its target T1, Peroxisome proliferator-activated receptor alpha (Homo sapiens, UniProt Q07869).
T1 sequence (Q07869 whole entry): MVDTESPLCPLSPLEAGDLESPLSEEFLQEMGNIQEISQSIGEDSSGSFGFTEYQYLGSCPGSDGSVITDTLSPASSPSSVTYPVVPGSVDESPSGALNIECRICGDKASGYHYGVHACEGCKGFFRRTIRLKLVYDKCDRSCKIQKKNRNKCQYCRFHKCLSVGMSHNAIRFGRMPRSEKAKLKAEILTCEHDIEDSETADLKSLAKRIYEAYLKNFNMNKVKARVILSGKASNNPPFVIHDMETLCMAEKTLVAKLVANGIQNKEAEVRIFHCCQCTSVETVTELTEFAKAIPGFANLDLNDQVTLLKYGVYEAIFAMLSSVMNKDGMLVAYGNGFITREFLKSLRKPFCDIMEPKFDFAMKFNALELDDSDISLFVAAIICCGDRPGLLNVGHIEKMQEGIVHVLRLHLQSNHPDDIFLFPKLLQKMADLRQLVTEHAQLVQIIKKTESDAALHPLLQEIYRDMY
The assay is described as follows: Agonist activity at human PPARalpha ligand binding domain expressed in human 293T cells co-transfected with Gal4-DBD by luciferase transactivation assay. Type of assay: cell-based. As to conditions: read-out: EC50.

Assay [2] concerns the target T2, Peroxisome proliferator-activated receptor delta (Homo sapiens, UniProt Q03181).
T2 sequence (Q03181 whole entry): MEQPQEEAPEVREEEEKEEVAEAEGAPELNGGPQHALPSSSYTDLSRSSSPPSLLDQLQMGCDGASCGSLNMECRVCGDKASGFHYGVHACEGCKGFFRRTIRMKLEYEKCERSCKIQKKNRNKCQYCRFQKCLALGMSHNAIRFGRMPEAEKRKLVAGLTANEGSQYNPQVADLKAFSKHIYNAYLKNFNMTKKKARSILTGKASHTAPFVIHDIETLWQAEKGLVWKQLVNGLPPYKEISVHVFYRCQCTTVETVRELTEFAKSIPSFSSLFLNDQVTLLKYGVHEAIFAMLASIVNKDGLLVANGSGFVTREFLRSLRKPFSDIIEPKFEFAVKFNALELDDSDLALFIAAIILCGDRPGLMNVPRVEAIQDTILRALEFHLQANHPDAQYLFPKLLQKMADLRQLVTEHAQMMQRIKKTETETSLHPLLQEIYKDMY

For assay [3], the target named is T3, Peroxisome proliferator-activated receptor gamma (Homo sapiens, UniProt P37231).
T3 sequence (P37231 whole entry): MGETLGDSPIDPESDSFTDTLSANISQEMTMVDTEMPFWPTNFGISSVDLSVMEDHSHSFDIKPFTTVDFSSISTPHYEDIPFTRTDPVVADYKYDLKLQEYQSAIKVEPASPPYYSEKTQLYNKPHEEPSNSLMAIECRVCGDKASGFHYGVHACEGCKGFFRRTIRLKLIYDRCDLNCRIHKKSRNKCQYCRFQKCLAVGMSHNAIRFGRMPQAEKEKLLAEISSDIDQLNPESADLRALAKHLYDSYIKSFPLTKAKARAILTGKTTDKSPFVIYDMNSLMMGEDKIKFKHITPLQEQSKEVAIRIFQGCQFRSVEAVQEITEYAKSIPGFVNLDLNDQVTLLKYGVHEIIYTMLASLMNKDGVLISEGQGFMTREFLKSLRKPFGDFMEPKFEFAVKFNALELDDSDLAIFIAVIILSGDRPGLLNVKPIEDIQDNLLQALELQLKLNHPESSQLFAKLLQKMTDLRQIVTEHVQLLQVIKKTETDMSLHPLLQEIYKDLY
It is filed as cell-based, 293T. As to conditions: read-out: EC50.

Drawing on ChEMBL document CHEMBL1153748 (J Med Chem, 2010), this text covers EC50 for 38 compounds.

As to `COc1ccc(-c2nc(COc3ccc4oc(C(=O)O)cc4c3)sc2-c2ccc(C(F)(F)F)cc2)cc1`, the EC50 in assay [1], in assay [2] and in assay [3] was over 10 µM throughout.
`Cc1cc(OCc2nc(-c3ccc(N4CCCC4)cc3)c(-c3ccc(OC(F)(F)F)cc3)s2)ccc1OCC(=O)O`: the figures for the concentration for a half-maximal effect (EC50) in assay [1], in assay [2] and in assay [3] were over 10 µM, 0.41 µM and over 10 µM, respectively.
Regarding `CCOc1ccc(-c2nc(COc3ccc(OCC(=O)O)c(C)c3)sc2-c2ccc(OC(F)(F)F)cc2)cc1`, the concentration for a half-maximal effect (EC50) is over 10 µM in assay [1], 0.032 µM in assay [2] and over 10 µM in assay [3].
As to `Cc1cc(OCc2nc(-c3ccc(Cl)cc3)cs2)ccc1OCC(=O)O`, the figures for the EC50 in assay [1], in assay [2] and in assay [3] were over 10 µM, 4.71 µM and over 10 µM, respectively.
For the compound `COc1ccc(-c2nc(COc3ccc(OCC(=O)O)c(C)c3)sc2-c2ccc(C(C)(C)C)cc2)cc1`, the EC50 in assay [1] was over 10 µM; in assay [2], 0.72 µM; in assay [3], over 10 µM.
With `Cc1cc(OCc2nc(-c3ccc(C(F)(F)F)cc3)c(C)s2)ccc1OCC(=O)O`, the EC50 was over 10 µM in assay [1], 2.4 µM in assay [2] and over 10 µM in assay [3].
As for `COc1ccc(-c2nc(COc3ccc(CC(=O)O)c(C)c3)sc2-c2ccc(C(F)(F)F)cc2)cc1`, the half-maximal effective concentration (EC50) in assay [1] is over 10 µM; in assay [2], 0.14 µM; in assay [3], over 10 µM.
Consider `Cc1ccc(-c2sc(COc3ccc(OCC(=O)O)c(C)c3)nc2C)cc1`, for which the EC50 was over 10 µM in assay [1], 6.32 µM in assay [2] and over 10 µM in assay [3].
On to `COc1ccc(-c2nc(COc3cccc(OCC(=O)O)c3)sc2-c2ccc(C(F)(F)F)cc2)cc1`, for which the 50% effective concentration (EC50) in assay [1], in assay [2] and in assay [3] was over 10 µM each time.
On to `COc1ccc(-c2nc(COc3ccc(OCC(=O)O)c(C)c3)oc2-c2ccc(OC(F)(F)F)cc2)cc1`, for which the EC50 was over 10 µM in assay [1], 0.01 µM in assay [2] and over 10 µM in assay [3].
For the compound `CCCc1cc(OCc2nc(-c3ccc(OC)cc3)c(-c3ccc(C(F)(F)F)cc3)s2)ccc1OCC(=O)O`, the EC50 was over 10 µM in assay [1], 0.02 µM in assay [2] and over 10 µM in assay [3].
As for `Cc1cc(OCc2nc(-c3cccnc3)c(-c3ccc(OC(F)(F)F)cc3)s2)ccc1OCC(=O)O`, the values for the EC50 in assay [1], in assay [2] and in assay [3] were over 10 µM, 0.068 µM and over 10 µM, respectively.
Consider `COc1ccc(-c2nc(CSc3ccc(OCC(=O)O)c(C)c3)sc2-c2ccc(OC)cc2)cc1`, for which the concentration for a half-maximal effect (EC50) in assay [1] is over 10 µM; in assay [2], 0.47 µM; in assay [3], over 10 µM.
Consider `Cc1cc(OCc2nc(-c3ccc(-c4ccccc4)cc3)c(-c3ccc(-c4ccccc4)cc3)s2)ccc1OCC(=O)O`, for which the EC50 is over 10 µM in assay [1], 0.13 µM in assay [2] and over 10 µM in assay [3].
On to `COc1ccc(-c2nc(COc3ccc(OCC(=O)O)c(C)c3)oc2-c2ccc(Cl)c(Cl)c2)cc1`, for which the figures for the concentration giving a half-maximal response (EC50) in assay [1], in assay [2] and in assay [3] were over 10 µM, 0.07 µM and over 10 µM, respectively.
Regarding `Cc1ccc(-c2sc(COc3ccc(OCC(=O)O)c(C)c3)nc2-c2cccnc2)cc1`, the concentration giving a half-maximal response (EC50) was over 10 µM in assay [1], 0.19 µM in assay [2] and over 10 µM in assay [3].
Consider `COc1ccc(-c2nc(CSc3ccc(OCC(=O)O)c(C)c3)oc2-c2ccc(OC)cc2)cc1`, for which the EC50 in assay [1] is over 10 µM; in assay [2], 0.66 µM; in assay [3] it was over 10 µM.
Turning to `COc1ccc(-c2nc(COc3ccc(OCC(=O)O)c(C)c3)sc2-c2ccc(OC)cc2)cc1`, the half-maximal effective concentration (EC50) was over 10 µM in assay [1], 0.1 µM in assay [2] and over 10 µM in assay [3].
Consider `COc1ccc(-c2nc(COc3ccc4c(ccn4CC(=O)O)c3)sc2-c2ccc(C(F)(F)F)cc2)cc1`, for which the concentration giving a half-maximal response (EC50) in assay [1] is over 10 µM; in assay [2] it was 0.34 µM; in assay [3], over 10 µM.
On to `COc1ccc(-c2nc(COc3ccc(OCC(=O)O)cc3C)sc2-c2ccc(C(F)(F)F)cc2)cc1`, for which the concentration for a half-maximal effect (EC50) in assay [1] was over 10 µM; in assay [2] it was 2.26 µM; in assay [3], over 10 µM.
Consider `COc1ccc(-c2nc(COc3ccc(OCC(=O)O)c(C)c3)sc2-c2ccc(-c3ccccc3)c(C(F)(F)F)c2)cc1`, for which the EC50 in assay [1] was over 10 µM; in assay [2], 0.25 µM; in assay [3] it was over 10 µM.
Turning to `COc1ccc(-c2nc(COc3ccc(OCC(=O)O)c4ccccc34)sc2-c2ccc(C(F)(F)F)cc2)cc1`, the half-maximal effective concentration (EC50) in assay [1] was over 10 µM; in assay [2] it was 2.93 µM; in assay [3], over 10 µM.
Turning to `COc1ccc(-c2nc(COc3ccc4c(c3)CC(C(=O)O)O4)sc2-c2ccc(C(F)(F)F)cc2)cc1` (centres undefined), the values for the concentration for a half-maximal effect (EC50) in assay [1], in assay [2] and in assay [3] were over 10 µM, 0.46 µM and over 10 µM, respectively.
For the compound `COc1ccc(-c2nc(COc3ccc(OCC(=O)O)c(C)c3)oc2-c2ccc(-c3ccccc3)cc2)cc1`, the 50% effective concentration (EC50) is over 10 µM in assay [1], 0.01 µM in assay [2] and over 10 µM in assay [3].
Take `Cc1cc(OCc2nc(-c3ccc(N4CCOCC4)nc3)c(-c3ccc(OC(F)(F)F)cc3)s2)ccc1OCC(=O)O`: the values for the EC50 in assay [1], in assay [2] and in assay [3] were over 10 µM, 0.018 µM and over 10 µM, respectively.
As to `COc1ccc(-c2nc(COc3ccc(OCC(=O)O)c(C)c3)sc2/C=C/c2ccccc2)cc1`, the figures for the concentration giving a half-maximal response (EC50) in assay [1], in assay [2] and in assay [3] were over 10 µM, 0.11 µM and over 10 µM, respectively.
For the compound `COc1ncc(-c2nc(COc3ccc(OCC(=O)O)c(C)c3)sc2-c2ccc(OC(F)(F)F)cc2)cn1`, the EC50 in assay [1] was over 10 µM; in assay [2], 0.034 µM; in assay [3], over 10 µM.
As for `COc1ccc(-c2nc(COc3ccc(OCC(=O)O)c(C)c3)oc2-c2ccc(Cl)cc2)cc1`, the EC50 in assay [1] was over 10 µM; in assay [2], 0.05 µM; in assay [3], over 10 µM.
For `COc1ccc(-c2nc(Sc3cccc(C(C)C(=O)O)c3)sc2-c2ccc(OC)cc2)cc1` (centres undefined), the concentration giving a half-maximal response (EC50) was found to be 0.3 µM in assay [1], 3.2 µM in assay [2] and 2.3 µM in assay [3].
On to `COc1ccc(-c2nc(COc3ccc(OCC(=O)O)c(C)c3)sc2-c2ccc(OC(F)(F)F)cc2)cc1`, for which the figures for the EC50 in assay [1], in assay [2] and in assay [3] were over 10 µM, 0.02 µM and over 10 µM, respectively.
For `Cc1cc(OCc2nc(-c3cncnc3)c(-c3ccc(OC(F)(F)F)cc3)o2)ccc1OCC(=O)O`, the EC50 in assay [1] was over 10 µM; in assay [2] it was 0.055 µM; in assay [3], over 10 µM.
`Cc1cc(OCc2nc(-c3ccccc3)c(-c3ccc(Cl)cc3)s2)ccc1OCC(=O)O`: the EC50 in assay [1] is over 10 µM; in assay [2], 0.13 µM; in assay [3], over 10 µM.
Take `COc1ccc(-c2nc(COc3ccc(OCC(=O)O)c(C)c3)sc2-c2cnc3ccccc3c2)cc1`: the EC50 in assay [1] was over 10 µM; in assay [2] it was 0.08 µM; in assay [3] it was over 10 µM.
With `COc1ccc(-c2nc(COc3ccc(CCC(=O)O)c(C)c3)sc2-c2ccc(C(F)(F)F)cc2)cc1`, the EC50 in assay [1] is over 10 µM; in assay [2] it was 0.14 µM; in assay [3] it was over 10 µM.
For `CCCc1ccc(-c2oc(COc3ccc(OCC(=O)O)c(C)c3)nc2-c2ccc(OC)cc2)cc1`, the EC50 in assay [1] was over 10 µM; in assay [2], 0.01 µM; in assay [3], over 10 µM.
For the compound `Cc1cc(OC/C=C(\C#Cc2ccc(C(F)(F)F)cc2)c2ccc(Br)cc2)ccc1OCC(=O)O`, the EC50 in assay [1] was over 10 µM; in assay [2], 0.13 µM; in assay [3], over 10 µM.
For `Cc1ccc(-c2csc(COc3ccc(OCC(=O)O)c(C)c3)n2)cc1`, the EC50 in assay [1], in assay [2] and in assay [3] was over 10 µM throughout.
As for `COc1ccc(-c2nc(COc3ccc(OCC(=O)O)c(C)c3)sc2-c2ccc3ccccc3c2)cc1`, the concentration for a half-maximal effect (EC50) in assay [1] is over 10 µM; in assay [2], 0.02 µM; in assay [3], over 10 µM.

Usually EC50 stands for the concentration giving half of the maximal effect.
